Data as given in PMC9402538, “Rational design of a sensitivity-enhanced tracer for discovering efficient APC–Asef inhibitors” (Nature Communications, 2022).
Where a chain is given by its changes, count along the chain named. Where a SMILES comes first, the peptide text is derived from it. The star is where a group is joined. Benzoyl(4-OMe) = COc1ccc(C(=O)*)cc1

Experiments:
[1] = target: T1, APC W593A (Homo sapiens, UniProt P25054, W593A); assay: ITC assay, APC W593A mutant; type: binding
T1 sequence (P25054 303-739 W593A): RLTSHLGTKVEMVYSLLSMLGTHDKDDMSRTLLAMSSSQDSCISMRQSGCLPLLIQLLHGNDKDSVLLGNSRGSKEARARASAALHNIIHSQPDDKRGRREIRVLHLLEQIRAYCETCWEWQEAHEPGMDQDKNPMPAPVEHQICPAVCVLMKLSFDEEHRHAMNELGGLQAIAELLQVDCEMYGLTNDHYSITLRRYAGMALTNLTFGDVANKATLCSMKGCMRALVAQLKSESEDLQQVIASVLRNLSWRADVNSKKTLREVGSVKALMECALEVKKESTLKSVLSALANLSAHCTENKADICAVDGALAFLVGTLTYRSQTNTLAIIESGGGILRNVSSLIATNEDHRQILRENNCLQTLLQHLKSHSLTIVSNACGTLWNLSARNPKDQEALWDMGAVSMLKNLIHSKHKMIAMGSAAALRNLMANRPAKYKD
Method: (§1) ITC experiments were performed using a MicroCal ITC200 calorimeter (Malvern Panalytical Ltd.). APC protein and peptide inhibitors were diluted with buffer containing 50 mM HEPES pH 7.5, 300 mM NaCl and 1 mM EDTA. The cells were loaded with APC proteins at 10–20 μM. All injections were performed using an initial injection of 0.2 μL followed by 19 injections of 2 μL at 100–200 μM. All measurements were carried out at 30 °C. The data were analyzed using a single-site binding model within MicroCal ITC200 analysis software to generate the stoichiometry (N), enthalpy changes (ΔH), entropy changes (ΔS), and the association constant (K) of binding. The changes in free energy (ΔG) were calculated (ΔG = ΔH-TΔS).

[2] = target: T2, APC N641A (Homo sapiens, UniProt P25054, N641A); assay: ITC assay, APC N641A mutant; type: binding
T2 sequence (P25054 303-739 N641A): T1 sequence (P25054 303-739 W593A) with A291W, N339A
Method: as §1

[3] = target: T3, APC W593A, N641A (Homo sapiens, UniProt P25054, N641A/W593A); assay: ITC assay, APC W593A, N641A double mutant; type: binding
T3 sequence (P25054 303-739 W593A/N641A): T1 sequence (P25054 303-739 W593A) with N339A
Method: as §1

[4] = target: T4, APC–Asef PPI (FLAG-tagged APC (303–876), HA-tagged Asef (170–632)) (Homo sapiens, UniProt P25054); assay: Exogenous Co-IP of APC–Asef in drug-treated HEK293T cell lysate; type: biochemical; settings: HEK293T cell lysate, 0.2, 1 and 5 μM, 2 h
T4 construct: FLAG-tagged APC (303–876) and hemagglutinin (HA)-tagged Asef (170–632) plasmids; expressed in transfected cells; host or cells: HEK293T (lysate treated with compound)
T4 sequence (P25054 303-876): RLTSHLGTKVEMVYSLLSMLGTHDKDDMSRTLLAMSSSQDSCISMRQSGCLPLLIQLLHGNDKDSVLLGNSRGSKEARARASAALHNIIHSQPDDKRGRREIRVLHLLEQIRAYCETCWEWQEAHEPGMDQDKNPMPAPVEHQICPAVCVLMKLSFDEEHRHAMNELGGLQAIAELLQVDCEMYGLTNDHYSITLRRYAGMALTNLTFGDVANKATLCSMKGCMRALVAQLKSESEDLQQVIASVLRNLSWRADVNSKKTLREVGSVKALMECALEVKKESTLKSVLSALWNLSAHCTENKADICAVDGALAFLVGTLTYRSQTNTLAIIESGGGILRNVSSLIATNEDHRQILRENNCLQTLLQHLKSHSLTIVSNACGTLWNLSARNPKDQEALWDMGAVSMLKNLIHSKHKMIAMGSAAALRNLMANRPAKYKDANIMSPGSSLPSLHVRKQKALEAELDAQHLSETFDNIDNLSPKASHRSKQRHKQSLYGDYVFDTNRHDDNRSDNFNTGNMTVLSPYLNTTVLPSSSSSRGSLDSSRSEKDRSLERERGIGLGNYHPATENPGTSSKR
Method: To investigate the effect of MAI-516 on the APC–Asef PPI, we first examined whether MAI-516 could perturb the APC–Asef PPI in cell lysates. HEK293T cells were transiently transfected with FLAG-tagged APC (303–876) and hemagglutinin (HA)-tagged Asef (170–632) plasmids. The cell lysates were harvested several hours after transfection and treated with different concentrations of MAI-203 and MAI-516 for 2 h; then, they were incubated with anti-FLAG® M2 affinity gel (Sigma; A2220) for 3 h at 4 °C.

## COc1ccc(C(=O)N[C@@H](C)C(=O)NCC(=O)N[C@@H](CCC(=O)O)C(=O)N[C@@H](CO)C(=O)N[C@@H](CC(C)C)C(=O)N[C@@H](Cc2ccc(O)cc2)C(=O)N[C@@H](CCC(=O)O)C(N)=O)cc1 [MAI-516] ({Benzoyl(4-OMe)}-AGESLYE-NH2)
[1]
  reduction of binding affinity vs APC WT: approximately 100 fold
[1]; 30 °C
  -TΔS: 2.63 kcal/mol
  L/P ratio: 0.92
  ΔG: -8.87 kcal/mol
  ΔH: -11.5 kcal/mol
[1]; ITC, 30 °C
  Kd: 400 nM
[2]
  reduction of binding affinity vs APC WT: ~2 fold
[2]; 30 °C
  -TΔS: 5.45 kcal/mol
  L/P ratio: 0.88
  ΔG: -11 kcal/mol
[2]; ITC, 30 °C
  Kd: 12 nM
[3]
  reduction of binding affinity vs APC WT: 200 fold
[3]; 30 °C
  -TΔS: 4.9 kcal/mol
  L/P ratio: 0.77
  ΔG: -8.44 kcal/mol
  ΔH: -13.3 kcal/mol
[3]; ITC, 30 °C
  Kd: 860 nM
[4]
  effect on APC–Asef PPI (Co-IP): dose-dependently attenuate the APC–Asef PPI
